Assays:
Test in all cases: relative viability (nuclei count vs DMSO), 5 days (fraction); higher = more cells survive
AZD8055 + Phenformin = compound: COc1ccc(-c2ccc3c(N4CCOC[C@@H]4C)nc(N4CCOC[C@@H]4C)nc3n2)cc1CO [AZD8055] + N=C(N)NC(=N)NCCc1ccccc1 [Phenformin] (partner 250 µM)
Method in brief: (§1)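 Relative viability was taken as the ratio of nuclei in treated wells to nuclei in vehicle wells. Lung cancer cell lines in 1536-well plates received compounds by pin tool one day after seeding, either one drug alone or a fixed anchor-drug dose plus five library-drug doses (not always all listed) in √10 steps. Nuclei were counted on 4× images after 5 days of treatment, and values are medians of duplicate plates.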

AZD8055 + OSI-027 = compound: COc1ccc(-c2ccc3c(N4CCOC[C@@H]4C)nc(N4CCOC[C@@H]4C)nc3n2)cc1CO [AZD8055] + COc1cccc2cc(-c3nc([C@H]4CC[C@H](C(=O)O)CC4)n4ncnc(N)c34)[nH]c12 [OSI-027] (partner 0.5 µM)
Method in brief: as §1

AZD8055 + Crizotinib = compound: COc1ccc(-c2ccc3c(N4CCOC[C@@H]4C)nc(N4CCOC[C@@H]4C)nc3n2)cc1CO [AZD8055] + C[C@@H](Oc1cc(-c2cnn(C3CCNCC3)c2)cnc1N)c1c(Cl)ccc(F)c1Cl [Crizotinib] (partner 1 µM)
Method in brief: as §1

AZD8055 + Trametinib = compound: COc1ccc(-c2ccc3c(N4CCOC[C@@H]4C)nc(N4CCOC[C@@H]4C)nc3n2)cc1CO [AZD8055] + CC(=O)Nc1cccc(-n2c(=O)n(C3CC3)c(=O)c3c(Nc4ccc(I)cc4F)n(C)c(=O)c(C)c32)c1 [Trametinib] (partner 0.02 µM)
Method in brief: as §1

Cell Line | relative viability (AZD8055 + Phenformin; first compound 0.01 µM) | relative viability (AZD8055 + Phenformin; first compound 0.03162 µM) | relative viability (AZD8055 + Phenformin; first compound 0.1 µM) | relative viability (AZD8055 + Phenformin; first compound 0.3162 µM) | relative viability (AZD8055 + Phenformin; first compound 1 µM) | relative viability (AZD8055 + OSI-027; first compound 0.01 µM) | relative viability (AZD8055 + OSI-027; first compound 0.03162 µM) | relative viability (AZD8055 + OSI-027; first compound 0.1 µM) | relative viability (AZD8055 + OSI-027; first compound 0.3162 µM) | relative viability (AZD8055 + OSI-027; first compound 1 µM) | relative viability (AZD8055 + Crizotinib; first compound 0.01 µM) | relative viability (AZD8055 + Crizotinib; first compound 0.03162 µM) | relative viability (AZD8055 + Crizotinib; first compound 0.1 µM) | relative viability (AZD8055 + Crizotinib; first compound 0.3162 µM) | relative viability (AZD8055 + Crizotinib; first compound 1 µM) | relative viability (AZD8055 + Trametinib; first compound 0.01 µM) | relative viability (AZD8055 + Trametinib; first compound 0.03162 µM) | relative viability (AZD8055 + Trametinib; first compound 0.1 µM) | relative viability (AZD8055 + Trametinib; first compound 0.3162 µM) | relative viability (AZD8055 + Trametinib; first compound 1 µM)
201T | 0.473 | 0.438 | 0.422 | 0.318 | 0.314 | 0.786 | 0.746 | 0.676 | 0.484 | 0.383 | 1.09 | 1.02 | 0.997 | 0.772 | 0.721 | 0.7 | 0.689 | 0.629 | 0.519 | 0.492
A-427 | 0.459 | 0.381 | 0.321 | 0.25 | 0.291 | 0.49 | 0.491 | 0.545 | 0.493 | 0.434 | 1.03 | 0.849 | 0.786 | 0.438 | 0.403 | 0.746 | 0.577 | 0.488 | 0.351 | 0.334
ABC-1 | 0.198 | 0.289 | 0.226 | 0.197 | 0.22 | 0.537 | 0.551 | 0.635 | 0.345 | 0.36 | 1.09 | 1.04 | 0.812 | 0.602 | 0.479 |  |  |  |  | 
BEN | 0.293 | 0.26 | 0.292 | 0.242 | 0.228 | 0.308 | 0.374 | 0.322 | 0.291 | 0.251 | 0.956 | 0.531 | 0.44 | 0.351 | 0.31 | 0.87 | 0.626 | 0.569 | 0.467 | 0.463
CAL-12T | 0.567 | 0.626 | 0.479 | 0.23 | 0.2 | 0.717 | 0.738 | 0.614 | 0.208 | 0.26 | 0.557 | 0.607 | 0.521 | 0.308 | 0.165 | 0.33 | 0.308 | 0.227 | 0.186 | 0.196
COR-L23 | 0.485 | 0.373 | 0.341 | 0.213 | 0.157 | 0.765 | 0.588 | 0.526 | 0.297 | 0.256 | 0.585 | 0.738 | 0.55 | 0.271 | 0.169 | 0.512 | 0.528 | 0.334 | 0.127 | 0.157
COR-L 105 | 0.506 | 0.529 | 0.35 | 0.278 | 0.275 | 0.682 | 0.702 | 0.615 | 0.382 | 0.383 | 0.807 | 0.875 | 0.706 | 0.465 | 0.292 | 0.416 | 0.412 | 0.44 | 0.404 | 0.416
Calu-6 |  |  |  |  |  |  |  |  |  |  | 1.03 | 0.699 | 0.556 | 0.42 | 0.322 |  |  |  |  | 
ChaGo-K-1 | 0.508 | 0.467 | 0.494 | 0.407 | 0.374 | 0.584 | 0.576 | 0.624 | 0.56 | 0.541 | 1.28 | 1.21 | 1.07 | 1.18 | 0.887 | 1.03 | 0.884 | 0.858 | 0.66 | 0.628
EKVX | 0.225 | 0.247 | 0.229 | 0.209 | 0.188 | 0.753 | 0.745 | 0.665 | 0.51 | 0.411 | 1.21 | 0.943 | 0.81 | 0.524 | 0.393 | 0.339 | 0.389 | 0.296 | 0.247 | 0.227
EMC-BAC-2 | 0.5 | 0.42 | 0.36 | 0.283 | 0.258 | 0.364 | 0.387 | 0.358 | 0.291 | 0.284 | 0.764 | 0.706 | 0.612 | 0.337 | 0.344 | 0.87 | 0.818 | 0.733 | 0.363 | 0.434
EPLC-272H | 0.326 | 0.214 | 0.216 | 0.198 | 0.212 | 0.252 | 0.255 | 0.28 | 0.228 | 0.243 | 0.865 | 0.739 | 0.498 | 0.494 | 0.37 | 0.278 | 0.257 | 0.227 | 0.189 | 0.131
H3255 | 0.349 | 0.397 | 0.332 | 0.279 | 0.305 | 0.706 | 0.572 | 0.587 | 0.454 | 0.423 | 1.3 | 0.818 | 0.718 | 0.407 | 0.301 | 0.687 | 0.588 | 0.455 | 0.306 | 0.322
HARA | 0.548 | 0.478 | 0.5 | 0.307 | 0.215 | 0.612 | 0.641 | 0.419 | 0.419 | 0.249 | 1.09 | 1.14 | 0.855 | 0.573 | 0.33 |  | 0.671 | 0.497 | 0.285 | 0.223
HCC-15 | 0.547 | 0.459 | 0.425 | 0.286 | 0.232 | 0.805 | 0.732 | 0.658 | 0.38 | 0.303 | 0.816 | 0.788 | 0.746 | 0.529 | 0.334 | 0.373 | 0.337 | 0.271 | 0.167 | 0.186
HCC-44 | 0.216 | 0.197 | 0.132 | 0.158 | 0.128 | 0.6 | 0.526 | 0.483 | 0.267 | 0.308 | 0.879 | 0.825 | 0.662 | 0.364 | 0.315 | 0.994 | 1.16 | 0.907 | 0.802 | 0.731
HCC-78 | 0.684 | 0.64 | 0.437 | 0.386 | 0.35 | 0.415 | 0.392 | 0.326 | 0.352 | 0.366 | 0.303 | 0.307 | 0.233 | 0.213 | 0.19 | 0.819 | 0.596 | 0.597 | 0.409 | 0.349

Source: the supplement of paper PMC10307832
